Active and inactive are the calls of the source. The rule behind the calls is not given here.

In test [1] the target is T1, Histone acetyltransferase p300/Hypoxia-inducible factor 1-alpha (Homo sapiens, UniProt Q09472+Q16665). As to the kind of experiment: Inhibition of human C-terminal activation domain of HIF-1alpha/CH1 domain of GST-p300 interaction using F-786-826 at 200 uM by fluorescence polarization based assay. It is filed as protein-complex assay.
Target sequence in this assay (Q09472 2-2414 limits assumed): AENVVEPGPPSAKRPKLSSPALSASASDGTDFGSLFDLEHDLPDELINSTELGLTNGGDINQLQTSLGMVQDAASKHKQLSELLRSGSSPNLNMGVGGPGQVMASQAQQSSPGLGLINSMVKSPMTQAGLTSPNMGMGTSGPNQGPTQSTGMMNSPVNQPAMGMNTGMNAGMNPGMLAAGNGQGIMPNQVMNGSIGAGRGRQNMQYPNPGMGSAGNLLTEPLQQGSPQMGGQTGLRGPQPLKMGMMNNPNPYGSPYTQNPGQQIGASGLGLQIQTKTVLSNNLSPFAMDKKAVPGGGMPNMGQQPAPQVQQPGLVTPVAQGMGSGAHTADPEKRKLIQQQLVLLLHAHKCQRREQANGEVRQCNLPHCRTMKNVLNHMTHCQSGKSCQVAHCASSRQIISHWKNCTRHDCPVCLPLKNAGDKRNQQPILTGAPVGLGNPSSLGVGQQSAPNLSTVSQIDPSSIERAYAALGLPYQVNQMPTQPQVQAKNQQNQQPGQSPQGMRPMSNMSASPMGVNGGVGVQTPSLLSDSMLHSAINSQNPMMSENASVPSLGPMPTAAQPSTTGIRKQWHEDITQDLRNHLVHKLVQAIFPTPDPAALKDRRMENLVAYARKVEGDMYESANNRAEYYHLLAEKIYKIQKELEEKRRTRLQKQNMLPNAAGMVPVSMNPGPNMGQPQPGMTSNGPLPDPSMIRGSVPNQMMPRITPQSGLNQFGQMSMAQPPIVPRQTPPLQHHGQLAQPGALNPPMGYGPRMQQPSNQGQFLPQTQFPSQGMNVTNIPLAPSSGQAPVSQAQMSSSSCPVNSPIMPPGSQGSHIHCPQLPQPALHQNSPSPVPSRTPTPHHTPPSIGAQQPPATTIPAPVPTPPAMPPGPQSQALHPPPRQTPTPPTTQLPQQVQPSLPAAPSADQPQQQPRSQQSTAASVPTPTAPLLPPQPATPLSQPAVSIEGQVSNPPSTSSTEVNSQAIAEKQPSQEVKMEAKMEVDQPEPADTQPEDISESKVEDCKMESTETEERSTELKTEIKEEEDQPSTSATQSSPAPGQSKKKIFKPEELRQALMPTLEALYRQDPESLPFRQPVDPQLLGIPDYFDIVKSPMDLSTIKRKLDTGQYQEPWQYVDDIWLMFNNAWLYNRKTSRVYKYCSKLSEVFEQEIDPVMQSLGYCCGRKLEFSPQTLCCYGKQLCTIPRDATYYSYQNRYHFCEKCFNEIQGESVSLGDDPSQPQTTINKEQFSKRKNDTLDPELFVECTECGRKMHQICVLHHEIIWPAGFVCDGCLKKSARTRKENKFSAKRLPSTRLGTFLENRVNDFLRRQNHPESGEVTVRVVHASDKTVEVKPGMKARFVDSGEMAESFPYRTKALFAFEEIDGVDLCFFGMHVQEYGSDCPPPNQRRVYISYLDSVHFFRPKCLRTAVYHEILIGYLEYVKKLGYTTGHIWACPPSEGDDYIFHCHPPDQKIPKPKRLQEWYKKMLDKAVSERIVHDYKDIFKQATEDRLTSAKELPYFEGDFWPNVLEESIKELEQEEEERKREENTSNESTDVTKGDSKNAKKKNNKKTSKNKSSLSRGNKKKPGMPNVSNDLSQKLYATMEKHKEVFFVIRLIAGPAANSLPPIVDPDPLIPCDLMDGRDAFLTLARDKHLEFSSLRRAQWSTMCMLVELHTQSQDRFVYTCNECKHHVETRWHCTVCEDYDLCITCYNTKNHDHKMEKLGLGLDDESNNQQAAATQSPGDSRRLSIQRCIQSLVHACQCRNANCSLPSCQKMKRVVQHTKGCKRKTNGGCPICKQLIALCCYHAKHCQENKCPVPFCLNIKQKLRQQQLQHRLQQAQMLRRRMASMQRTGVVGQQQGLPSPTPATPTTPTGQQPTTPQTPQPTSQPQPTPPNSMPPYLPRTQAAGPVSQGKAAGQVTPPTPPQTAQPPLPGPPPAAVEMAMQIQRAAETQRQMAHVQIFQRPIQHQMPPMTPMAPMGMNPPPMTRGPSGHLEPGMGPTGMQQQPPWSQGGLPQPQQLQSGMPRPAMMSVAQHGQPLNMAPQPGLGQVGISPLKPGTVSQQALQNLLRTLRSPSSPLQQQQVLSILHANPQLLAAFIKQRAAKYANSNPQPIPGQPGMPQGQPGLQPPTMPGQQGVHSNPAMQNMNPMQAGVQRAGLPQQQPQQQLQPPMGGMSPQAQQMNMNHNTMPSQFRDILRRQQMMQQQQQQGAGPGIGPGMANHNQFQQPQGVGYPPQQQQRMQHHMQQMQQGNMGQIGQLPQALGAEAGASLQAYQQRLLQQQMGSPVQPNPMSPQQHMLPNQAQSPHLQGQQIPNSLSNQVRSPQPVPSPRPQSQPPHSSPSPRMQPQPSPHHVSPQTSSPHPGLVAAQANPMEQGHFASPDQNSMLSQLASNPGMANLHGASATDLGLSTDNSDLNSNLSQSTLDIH
Target sequence in this assay (Q16665 whole entry partner, the tested form may be a part): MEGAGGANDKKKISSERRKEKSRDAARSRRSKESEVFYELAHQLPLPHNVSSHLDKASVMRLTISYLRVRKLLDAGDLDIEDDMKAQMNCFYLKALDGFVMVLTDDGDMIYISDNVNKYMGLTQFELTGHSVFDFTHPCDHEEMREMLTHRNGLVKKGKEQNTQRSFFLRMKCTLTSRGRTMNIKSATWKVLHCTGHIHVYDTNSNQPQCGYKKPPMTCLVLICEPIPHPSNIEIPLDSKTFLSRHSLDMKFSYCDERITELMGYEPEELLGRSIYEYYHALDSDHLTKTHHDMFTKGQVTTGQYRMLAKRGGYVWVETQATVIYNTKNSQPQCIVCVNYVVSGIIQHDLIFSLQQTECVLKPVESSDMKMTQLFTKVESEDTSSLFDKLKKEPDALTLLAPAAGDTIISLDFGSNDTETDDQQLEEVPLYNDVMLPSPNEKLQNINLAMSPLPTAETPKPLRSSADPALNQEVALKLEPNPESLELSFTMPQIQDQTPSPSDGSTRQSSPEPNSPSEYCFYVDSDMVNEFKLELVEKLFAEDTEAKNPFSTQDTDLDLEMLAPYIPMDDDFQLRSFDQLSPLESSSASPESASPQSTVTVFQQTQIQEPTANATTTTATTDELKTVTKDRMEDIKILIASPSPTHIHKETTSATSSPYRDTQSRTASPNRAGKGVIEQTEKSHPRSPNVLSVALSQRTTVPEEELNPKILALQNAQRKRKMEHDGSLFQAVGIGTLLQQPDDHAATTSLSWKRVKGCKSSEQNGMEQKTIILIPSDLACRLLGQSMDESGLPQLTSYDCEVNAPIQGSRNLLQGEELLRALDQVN
Test [2] addresses T1, Histone acetyltransferase p300/Hypoxia-inducible factor 1-alpha. Kind of test: Inhibition of human C-terminal activation domain of HIF-1alpha/CH1 domain of GST-p300 interaction using F-786-826 by fluorescence polarization based assay. It is filed as protein-complex assay. Background: In fluorescence polarisation assays a small probe gives low polarisation when free and higher when bound to something large.

Test [3] has the same target. Kind of test: Inhibition of deferoxamine-induced HIF-1alpha/resin-bound GST-p300 interaction human HeLa cells using coomasie blue staining by GST pull-down assay. The format is cell-based.
Target sequence in this assay (Q09472 2-2414 limits assumed): as the sequence (Q09472 2-2414 limits assumed) above
Target sequence in this assay (Q16665 whole entry partner, the tested form may be a part): as the sequence (Q16665 whole entry partner, the tested form may be a part) above
Test [4] deals with Hypoxia-inducible factor 1-alpha (Homo sapiens) (UniProt Q16665). As to the kind of experiment: Inhibition of HIF-1alpha in deferoxamine treated human HeLa cells assessed as reduction of VEGF mRNA level at 100 uM after 5 hrs by RT-PCR analysis. It is filed as cell-based.
The target is the same in test [5]. Kind of test: Effect on stabilization of HIF-1alpha in deferoxamine treated human HeLa cells at 50 to 500 uM by Western blot analysis. It is filed as cell-based. Background: In western blotting, separated proteins are transferred to a membrane and probed.
The test system of test [6] is HeLa. As to the kind of experiment: Cytotoxicity against human deferoxamine treated HeLa cells assessed as decrease of cell viability after 48 hrs by MTT assay. It is filed as functional, cell-based. A general note: Tetrazolium assays rely on reduction of a dye to a coloured formazan, in cell work by metabolically active cells.
Test [7] has as its system HeLa. Kind of test: Cytotoxicity against human deferoxamine treated HeLa cells assessed as decrease of cell viability after 24 hrs by MTT assay relative to control. The format is functional.

Hypoxia-inducible factor 1-alpha (Homo sapiens), sequence (Q16665 whole entry, looked up): as the sequence (Q16665 whole entry partner, the tested form may be a part) above

What is called inhibition is the share of the control response that was lost under treatment. For orientation: IC50 means the concentration at which inhibition is half-maximal. A high value points to weaker potency in that assay. The compound `CC(C)Cc1cc(CNC(=O)N2CCN(CC(=O)Nc3ccccc3Cl)CC2)nn1-c1ccccc1.Cl` came in with an inhibition in test [1] of 80%. Also, the IC50 in test [2] was found to be 107 µM. The inhibition result in test [3] and in test [4] was “Active” each time. In test [5], the outcome was inactive. Also, the Activity result with HeLa [6] was “Dose-dependent effect”; with HeLa [7], 50%.

The values are drawn from ChEMBL document CHEMBL2057094, “Inhibition of VEGF transcription through blockade of the hypoxia inducible factor-1α-p300 interaction by a small molecule” (Bioorg Med Chem Lett, 2012).
